Key:
Type in all cases: in vivo
[1] = system: Tetranychus urticae; assay: Acaricidal effect for Tetranychus urticae (Test Example 5); details: 100 ppm (table); spray on kidney bean with ten female imagoes; survivors counted on second and seventh day, 25° C.
Method: Acaricidal Effect for Tetranychus urticae
Ten female imagoes Tetranychus urticae were set free on a kidney bean wherein primary leaves had just developed. On the following day, a pesticidal solution, which was prepared by dissolving 5 mg of test compound (represented by the compound Nos. in the above Examples) in 0.5 ml of acetone containing Tween 20 ([…]) with Dain (trade name, sticker) water diluted 5000-fold, was sprayed with spray gun in the amounts wherein the pesticidal solution dripped. The kidney bean was left in a temperature-controlled breeding room (25° C.). On the second and seventh day after treatment, the number of surviving Tetranychus urticae was examined. The rate of decrease was calculated by the following formula. rate of decrease (%)=(1−(S2/(5.59×(10+(10+S1)/2+S1))))×100 In the above formula, • S1; the number of surviving imagoes on the second day after • S2; the number of surviving pests on the seventh day after […]

[2] = system: Plutella xylostella; assay: Insecticidal effect for Plutella xylostella by immersion treatment of host crop (Test Example 1); details: cabbage leaf dipped, second-instar larvae of Plutella xylostella, fifth day after; for rate of dead pests (%): 100 ppm; for pest or weed control at 100 ppm: foliar, 120 h, read-out: rate of dead pests (%)
Method: Insecticidal Effect for Plutella xylostella by Immersion Treatment of Host Crop One true leaf of 7 to 8-leave stage cabbage was cut off and dipped in a pesticidal solution for a few seconds, which was prepared by dissolving 5 mg of test compound (represented by the compound Nos. in the above Examples) in 0.5 ml of acetone containing Tween 20 (trade name) and then diluting it to the prescribed concentration (100 ppm) with Dain (trade name, sticker) water diluted 5000-fold. After drying the pesticidal solution, the leaf was put into an ice cream cup (180 ml), and ten second-instar larvae of Plutella xylostella were set free therein. The cup was left in a temperature-controlled breeding room (24° C.). On the fifth day after, the number of surviving Plutella xylostella was examined. The rate of dead pests was calculated by the following formula. rate of dead pests (%)=(number of dead pests/number of test pests)×100

[3] = system: Spodoptera litura; assay: Insecticidal effect for Spodoptera litura by spraying treatment to host crop (Test Example 2); details: 100 ppm, sprayed on soybean, third-instar larvae of Spodoptera litura, fifth day after; for pest or weed control at 100 ppm: 120 h, read-out: rate of dead pests (%)
How it was run: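 Ten third-instar larvae held at 25° C. on two excised primary soybean leaves previously sprayed to dripping with 100 ppm test solution. Mortality (%) calculated from dead versus tested larvae on the fifth day.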

[4] = system: Spodoptera litura; assay: Insecticidal effect for Spodoptera litura by immersion treatment of host crop root (Test Example 4); details: 25 ppm, soybean root immersion 5 days, second-instar larvae of Spodoptera litura, fifth day after; for pest or weed control at 25 ppm: 120 h, read-out: rate of dead pests (%)
How it was run: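 Soil was washed from the roots of soybean plants at the primary-leaf stage, and the roots were immersed in a pesticidal solution held in a light-shielded 100 ml Erlenmeyer flask. The solution was made from acetone containing Tween 20, diluted with ion-exchange water. Five days after root immersion, two primary leaves were cut and placed in a 180 ml cup with ten second-instar Spodoptera litura larvae, then kept at 25° C. Survivors were counted five days later. The rate of dead pests (%) was calculated as dead pests divided by test pests, times 100.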

[5] = system: Plutella xylostella; assay: Insecticidal effect for Plutella xylostella by immersion treatment of host crop root (Test Example 3); details: 25 ppm, cabbage root immersed 5 days, ten second-instar larvae on stem and leaves, counted on the fifth day, 24° C.; for pest or weed control at 25 ppm: Plutella xylostella, 120 h, read-out: rate of dead pests (%)
Method: Insecticidal Effect for Plutella xylostella by Immersion Treatment of Host Crop Root
Roots of 4-leave stage cabbage was washed with tap water to remove soil, and then immersed in a pesticidal solution which was prepared by dissolving 5 mg of test compound (represented by the compound Nos. in the above Examples) in 0.5 ml of acetone containing Tween 20 (trade name) and then diluting it to the prescribed concentration (25 ppm) with ion-exchange water, and which was filled in a light-shielded Erlenmeyer flask (100 ml). On the fifth day after immersion of root, the root was cut off, and the stem and leaves were put into an ice cream cup (180 ml). Ten second-instar larvae of Plutella xylostella were set free therein, and the cup was left in a temperature-controlled breeding room (24° C.). On the fifth day after, the number of surviving Plutella xylostella was examined. The rate of dead pests was calculated by the following formula. rate of dead pests (%)=(number of dead pests/number of test pests)×100

[6] = system: Plutella xylostella; assay: Pest control effect for Plutella xylostella by plant seedling foot soil surface irrigation treatment, 24th day (Test Example 6); details: 20 mg/plant; soil surface irrigation of cabbage; larvae counted on the 24th day
Method: Pest Control Effect for Plutella xylostella by Plant Seedling Foot Soil Surface Irrigation Treatment With Pesticidal Solution
A pesticidal solution which was prepared by dissolving 20 mg of test compound (represented by the compound Nos. in the above Examples) in 0.2 ml of acetone containing Tween 20 (trade name) and then diluting to 3 ml with ion-exchange water, was irrigated on the plant foot soil surface of 2.5-leave stage cabbage. This cabbage plant was transplanted to 1/5000a pot, and left in a facility wherein imagoes of Plutella xylostella were set free to lay eggs successively. On the 24th day after, the number of lavae on the plant was examined. The rate of pest control was calculated by the following formula. rate of pest control (%)=(1−number of pests in treated plant/number of pests in non-treated-plant)×100

SMILES | rate of decrease (%) [1] [%] | rate of dead pests (%) [2] [%] | rate of dead pests (%) [3] [%] | also measured
C=CCN1CN(C(=O)c2c(F)cccc2F)C(=O)N(c2ccc(Oc3ccc(C(F)(F)F)cc3Cl)cc2F)C1 [III-24] | 95 | 100 | 100 | 
COC(=O)SN1CN(C(=O)c2c(F)cccc2F)C(=O)N(c2ccc(Oc3ccc(C(F)(F)F)cc3Cl)cc2F)C1 [III-31] | 99 | 100 | 100 | 
CONC(=O)C(=O)N1CN(C(=O)c2c(F)cccc2F)C(=O)N(c2ccc(Oc3ccc(C(F)(F)F)cc3Cl)cc2F)C1 [III-49] | 96 |  | 100 | rate of dead pests (%) [4]: 95%
O=C(c1c(F)cccc1F)N1CN(S(=O)(=O)C(F)(F)F)CN(c2ccc(Oc3ccc(C(F)(F)F)cc3Cl)cc2F)C1=O [III-35] | 97 |  | 100 | 
CSCC(=O)N1CN(C(=O)c2c(F)cccc2F)C(=O)N(c2ccc(Oc3ccc(C(F)(F)F)cc3Cl)cc2F)C1 [III-45] | 100 | 100 | 100 | 
O=C(c1c(F)cccc1F)N1CNCN(c2ccc(Oc3ccc(C(F)(F)F)cc3Cl)cc2F)C1=O [III-27, 1-[4-(2-chloro-4-trifluoromethylphenoxy)-2-fluorophenyl]-3-(2,6-difluorobenzoyl)tetrahydro-1,3,5-triazin-2(1H)-one] | 96 |  |  | pest or weed control at 100 ppm [2]: 100%; pest or weed control at 100 ppm [3]: 100%
COC(=O)C(=O)N1CN(C(=O)c2c(F)cccc2F)C(=O)N(c2ccc(Oc3ccc(C(F)(F)F)cc3Cl)cc2F)C1 [III-37, Methyl 2-[3-[4-(2-chloro-4-trifluoromethylphenoxy)-2-fluorophenyl]-5-(2,6-difluorobenzoyl)hexahydro-4-oxo-1,3,5-triazin-1-yl]-2-oxoacetate] | 97 |  |  | pest or weed control at 25 ppm [4]: 95%; pest or weed control at 100 ppm [3]: 100%
O=C(CBr)N1CN(C(=O)c2c(F)cccc2F)C(=O)N(c2ccc(Oc3ccc(C(F)(F)F)cc3Cl)cc2F)C1 [III-44] | 96 | 100 | 100 | 
CON(C)C(=O)C(=O)N1CN(C(=O)c2c(F)cccc2F)C(=O)N(c2ccc(Oc3ccc(C(F)(F)F)cc3Cl)cc2F)C1 [III-48] | 95 | 100 |  | 
CS(=O)(=O)N1CN(C(=O)c2c(F)cccc2F)C(=O)N(c2cc(Cl)c(F)c(Cl)c2F)C1 [III-58] |  | 100 | 100 | rate of dead pests (%) [5]: 90%; rate of dead pests (%) [4]: 100%
O=C(c1c(F)cccc1F)N1COCN(c2ccc(SC(F)(F)F)cc2)C1=O [I-25] |  | 100 |  | rate of pest control (%) [6]: 88%
O=C(OCc1ccccc1)C(=O)N1CN(C(=O)c2c(F)cccc2F)C(=O)N(c2ccc(Oc3ccc(C(F)(F)F)cc3Cl)cc2F)C1 [III-39, Benzyl 2-[3-[4-(2-chloro-4-trifluoromethylphenoxy)-2-fluorophenyl]-5-(2,6-difluorobenzoyl)hexahydro-4-oxo-1,3,5-triazin-1-yl]-2-oxoacetate] | 97 |  |  | pest or weed control at 100 ppm [2]: 100%; pest or weed control at 100 ppm [3]: 100%
CC(=O)N1CN(C(=O)c2c(F)cccc2F)C(=O)N(c2ccc(SC(F)F)cc2F)C1 [III-149] |  | 100 | 100 | rate of dead pests (%) [5]: 95%; rate of dead pests (%) [4]: 100%
O=C(c1c(F)cccc1F)N1COCN(c2ccc([S+]([O-])C(F)(F)C(F)Cl)cc2F)C1=O (stereo not shown) [I-8] |  | 100 | 100 | rate of dead pests (%) [5]: 100%; rate of dead pests (%) [4]: 100%
CC(C)N1CN(C(=O)c2c(F)cccc2F)C(=O)N(c2ccc(Oc3ccc(C(F)(F)F)cc3Cl)cc2F)C1 [III-25] | 97 | 100 | 100 | 
O=C(O)C(=O)N1CN(C(=O)c2c(F)cccc2F)C(=O)N(c2ccc(Oc3ccc(C(F)(F)F)cc3Cl)cc2F)C1 [III-38, 2-[3-[4-(2-chloro-4-trifluoromethylphenoxy)-2-fluorophenyl]-5-(2,6-difluorobenzoyl)hexahydro-4-oxo-1,3,5-triazin-1-yl]-2-oxoacetic Acid] | 98 |  |  | pest or weed control at 25 ppm [5]: 90%; pest or weed control at 25 ppm [4]: 100%; pest or weed control at 100 ppm [3]: 100%
COC(=O)C(=O)N1CN(C(=O)c2c(F)cccc2F)C(=O)N(c2cc(Cl)c(F)c(Cl)c2F)C1 [III-64] |  | 100 | 100 | rate of dead pests (%) [5]: 90%; rate of dead pests (%) [4]: 90%
CN1CN(C(=O)c2c(F)cccc2F)C(=O)N(c2ccc(SC(F)F)cc2F)C1 [III-148, 1-(2,6-difluorobenzoyl)-3-[4-(difluoromethylthio)-2-fluorophenyl]-5-methyltetrahydro-1,3,5-triazin-2(1H)-one] |  |  |  | pest or weed control at 25 ppm [5]: 100%; pest or weed control at 25 ppm [4]: 100%; pest or weed control at 100 ppm [2]: 100%; pest or weed control at 100 ppm [3]: 100%
NC(=O)C(=O)N1CN(C(=O)c2c(F)cccc2F)C(=O)N(c2ccc(Oc3ccc(C(F)(F)F)cc3Cl)cc2F)C1 [III-41] | 97 | 100 | 100 | 
CN1CN(C(=O)c2c(F)cccc2F)C(=O)N(c2ccc([S+]([O-])C(F)F)cc2F)C1 (stereo not shown) [III-152, 1-(2,6-difluorobenzoyl)-3-[4-(difluoromethylsulfinyl)-2-fluorophenyl]-5-methyltetrahydro-1,3,5-triazin-2(1H)-one] |  |  |  | pest or weed control at 25 ppm [5]: 100%; pest or weed control at 25 ppm [4]: 100%; pest or weed control at 100 ppm [2]: 100%; pest or weed control at 100 ppm [3]: 100%
CNC(=O)C(=O)N1CN(C(=O)c2c(F)cccc2F)C(=O)N(c2ccc(Oc3ccc(C(F)(F)F)cc3Cl)cc2F)C1 [III-42] | 98 |  | 100 | 
C[S+]([O-])CC(=O)N1CN(C(=O)c2c(F)cccc2F)C(=O)N(c2ccc(Oc3ccc(C(F)(F)F)cc3Cl)cc2F)C1 (stereo not shown) [III-46] | 97 |  |  | 
CN1CN(C(=O)c2c(F)cccc2F)C(=O)N(c2ccc(Oc3ccc(C(F)(F)F)cc3Cl)cc2F)C1 [III-21] | 99 |  | 100 | 
CSc1ccc(N2COCN(C(=O)c3c(F)cccc3F)C2=O)c(F)c1 [I-28] |  | 100 | 100 | rate of dead pests (%) [5]: 100%; rate of dead pests (%) [4]: 100%

— patent US20050159599A1, “Cyclic compound, process for producing the same, and pest control agent” (priority 2002, published 2005)
